Where two headings read alike, the source gives them in different places.

This experiment has as its target T1, ASGP receptor (biotinylated ASGPR) (Homo sapiens, UniProt P07306).
T1 construct: biotin (biotinylated)
T1 sequence (P07306 1-291): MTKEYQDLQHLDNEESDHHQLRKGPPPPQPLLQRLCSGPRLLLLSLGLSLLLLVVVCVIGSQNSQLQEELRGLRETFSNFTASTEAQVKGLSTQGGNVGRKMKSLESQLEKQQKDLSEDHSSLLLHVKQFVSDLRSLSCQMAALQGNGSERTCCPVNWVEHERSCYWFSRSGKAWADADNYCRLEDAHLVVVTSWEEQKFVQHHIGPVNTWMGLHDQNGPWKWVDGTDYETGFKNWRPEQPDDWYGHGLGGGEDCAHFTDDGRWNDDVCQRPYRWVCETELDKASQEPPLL
The experiment is classed as binding. Conditions: SPR.

The mark [1] stands for this setting: Biacore 8K, 25° C., Table 1C, read-out: ASGPR KD.
Where [2] appears, read: Biacore 8K, 25° C., Table 1E, read-out: ASGPR KD.
Setting [3] is: Biacore 8K, 25° C., Table 1A, read-out: ASGPR KD.
The mark [4] stands for this setting: Biacore 8K, 25° C., Table 1B, read-out: ASGPR Kd.

For `O[C@@H]1[C@H](O)[C@@H](Oc2cccc(C(F)(F)F)n2)CO[C@@H]1c1cn(C2CCNCC2)nn1` [A224, (2R,3R,4S,5S)-2-(1-(piperidin-4-yl)-1H-1,2,3-triazol-4-yl)-5-((6-(trifluoromethyl)pyridin-2-yl)oxy)tetrahydro-2H-pyran-3,4-diol], under setting [1], the Kd (commonly the concentration at which binding is half-saturated) was less than 10 µM. Still for that read-out and setting: the result for `O=C(O)c1c(F)cc(CN2CCN(C[C@H]3OC[C@H](Nc4cncc(C(F)(F)F)n4)[C@@H](O)[C@H]3O)CC2)cc1F` [A251] reads less than 10 µM; that for `O=S(=O)(C[C@H]1OC[C@H](Oc2cccc(C(F)(F)F)n2)[C@@H](O)[C@H]1O)c1ccccc1` [A310], less than 10 µM. Same read-out and setting: under `O=C1c2sccc2CN1C[C@H]1OC[C@H](Oc2cccc(C(F)(F)F)n2)[C@@H](O)[C@H]1O` [A291] stands less than 10 µM.

Take `O=C1c2ncccc2CN1C[C@H]1OC[C@H](Oc2cccc(C(F)(F)F)n2)[C@@H](O)[C@H]1O` [A263]: the Kd under setting [1] was less than 10 µM. As for `C[C@H]1O[C@H](COc2cccnn2)[C@H](Oc2cccc(C(F)(F)F)n2)[C@@H](O)[C@H]1O` [A441], under setting [2], the Kd was less than 10 µM. On to `O=C(NC[C@H]1OC[C@H](Nc2cncc(C(F)(F)F)n2)[C@@H](O)[C@H]1O)Nc1ccccc1` [A114, 1-(((2R,3R,4R,5S)-3,4-dihydroxy-5-((6-(trifluoromethyl)pyrazin-2-yl)amino)tetrahydro-2H-pyran-2-yl)methyl)-3-phenylurea], for which the Kd under setting [3] is less than 10 µM. Turning to `O[C@@H]1[C@H](O)[C@@H](Oc2cncc(C(F)(F)F)n2)CO[C@@H]1COc1ccc(Br)c(F)c1` [A210, (2R,3R,4S,5S)-2-((4-bromo-3-fluorophenoxy)methyl)-5-((6-(trifluoromethyl)pyrazin-2-yl)oxy)tetrahydro-2H-pyran-3,4-diol], under setting [1], the dissociation constant Kd was less than 10 µM.

Regarding `O[C@@H]1[C@H](O)[C@@H](Nc2cncc(C(F)(F)F)n2)CO[C@@H]1CN1CCCCCCC1` [A73, (2R,3R,4R,5S)-2-(azocan-1-ylmethyl)-5-((6-(trifluoromethyl)pyrazin-2-yl)amino)tetrahydro-2H-pyran-3,4-diol], the dissociation constant Kd under setting [3] is less than 10 µM. On to `O=C(OCc1ccccc1)N1C[C@H](Nc2cccc(C(F)(F)F)n2)[C@@H](O)[C@@H](O)C1` [A390], for which the Kd (Biacore 8K, 25° C., Table 1D, read-out: ASGPR KD) is less than 10 µM. Turning to `O=C(O)c1cc2ccc1CCc1ccc(c(C(=O)NC[C@H]3OC[C@H](Nc4cncc(C(F)(F)F)n4)[C@@H](O)[C@H]3O)c1)CC2` [A66, 4^3-((((2R,3R,4R,5S)-3,4-dihydroxy-5-((6-(trifluoromethyl)pyrazin-2-yl)amino)tetrahydro-2H-pyran-2-yl)methyl)carbamoyl)-1,4(1,4)-dibenzenacyclohexaphane-1^2-carboxylic acid], the Kd under setting [3] is less than 10 µM. Turning to `OC[C@H]1OC[C@H](Nc2ncc3cc[nH]c3n2)[C@@H](O)[C@H]1O` [A184, (2R,3R,4R,5S)-5-((7H-pyrrolo[2,3-d]pyrimidin-2-yl)amino)-2-(hydroxymethyl)tetrahydro-2H-pyran-3,4-diol], the Kd (Biacore 8K, 25° C., Table 1C, numeric bound, read-out: ASGPR KD) is more than 30 µM. Turning to `O=C(NC[C@H]1OC[C@H](Nc2cncc(C(F)(F)F)n2)[C@@H](O)[C@H]1O)c1cc(C(F)(F)F)n[nH]1` [A29, N-(((2R,3R,4R,5S)-3,4-dihydroxy-5-((6-(trifluoromethyl)pyrazin-2-yl)amino)tetrahydro-2H-pyran-2-yl)methyl)-3-(trifluoromethyl)-1H-pyrazole-5-carboxamide], under setting [3], the equilibrium dissociation constant (Kd) was less than 10 µM. Still for that read-out and setting: under `OC[C@H]1O[C@H](Cc2ccccc2)[C@@H](Nc2nccc(C(F)(F)F)n2)[C@@H](O)[C@H]1O` [A104] stands 10 to 100 µM. `O=C1c2c(F)cccc2CN1C[C@H]1OC[C@H](Oc2cccc(C(F)(F)F)n2)[C@@H](O)[C@H]1O` [A272]: the equilibrium dissociation constant (Kd) under setting [1] was less than 10 µM. As for `N#Cc1ccc(OC[C@H]2OC[C@H](Nc3cncc(C(F)(F)F)n3)[C@@H](O)[C@H]2O)nn1` [A188, 6-(((2R,3R,4R,5S)-3,4-dihydroxy-5-((6-(trifluoromethyl)pyrazin-2-yl)amino)tetrahydro-2H-pyran-2-yl)methoxy)pyridazine-3-carbonitrile], the dissociation constant (Kd) under setting [1] was less than 10 µM. Consider `NCCOCCOCCOC[C@H]1OC[C@H](Nc2cncc(C(F)(F)F)n2)[C@@H](O)[C@H]1O` [A53, (2R,3R,4R,5S)-2-((2-(2-(2-aminoethoxy)ethoxy)ethoxy)methyl)-5-((6-(trifluoromethyl)pyrazin-2-yl)amino)tetrahydro-2H-pyran-3,4-diol], for which the dissociation constant Kd under setting [3] was less than 10 µM. As for `O[C@@H]1[C@H](O)[C@@H](Nc2cncc(C(F)(F)F)n2)CO[C@@H]1CNc1ncncn1` [A85, (2R,3R,4R,5S)-2-(((1,3,5-triazin-2-yl)amino)methyl)-5-((6-(trifluoromethyl)pyrazin-2-yl)amino)tetrahydro-2H-pyran-3,4-diol], the Kd under setting [3] was less than 10 µM.

Take `CC(C)(C)OC(=O)N1CC2CN(C[C@H]3OC[C@H](Oc4cccc(C(F)(F)F)n4)[C@@H](O)[C@H]3O)CC21` (stereo partly drawn) [A261]: under setting [1], the Kd was less than 10 µM.

As to `O=C(CCOCC(COCCC(=O)NC[C@H]1OC[C@H](Nc2cncc(C(F)(F)F)n2)[C@@H](O)[C@H]1O)NCC(=O)N1CCN(Cc2ccc(-c3c[nH]c4ccncc34)c(OCCc3ccc(-c4cccc5ccncc45)cc3)c2)CC1)NC[C@H]1OC[C@H](Nc2cncc(C(F)(F)F)n2)[C@@H](O)[C@H]1O` [compound 21], the dissociation constant Kd (Table 2, read-out: ASGPR SPR Binding KD) was less than 0.1 µM.

For the compound `C[C@H]1O[C@H](C#CCOc2cccnn2)[C@H](Oc2cccc(C(F)(F)F)n2)[C@@H](O)[C@H]1O` [A319], the equilibrium dissociation constant (Kd) under setting [1] was less than 10 µM. As to `O=C(NC[C@H]1OC[C@H](Nc2cncc(C(F)(F)F)n2)[C@@H](O)[C@H]1O)c1n[nH]c2ccccc12` [A44, N-(((2R,3R,4R,5S)-3,4-dihydroxy-5-((6-(trifluoromethyl)pyrazin-2-yl)amino)tetrahydro-2H-pyran-2-yl)methyl)-1H-indazole-3-carboxamide], under setting [3], the Kd was less than 10 µM.

Consider `Cc1cncc(N[C@H]2CO[C@H](CO)[C@H](O)[C@@H]2O)n1` [A180, (2R,3R,4R,5S)-2-(hydroxymethyl)-5-((6-methylpyrazin-2-yl)amino)tetrahydro-2H-pyran-3,4-diol], for which the Kd under setting [1] was less than 10 µM. Consider `CC(C)(C)OC(=O)N1CCC(Cc2ccc(OC[C@H]3OC[C@H](Oc4cccc(C(F)(F)F)n4)[C@@H](O)[C@H]3O)nn2)C1` (stereo partly drawn) [A294], for which, under setting [1], the dissociation constant (Kd) was less than 10 µM. As to `NCCOCCOCC(=O)NC[C@H]1OC[C@H](Nc2cncc(C(F)(F)F)n2)[C@@H](O)[C@H]1O` [A57, 2-(2-(2-aminoethoxy)ethoxy)-N-(((2R,3R,4R,5S)-3,4-dihydroxy-5-((6-(trifluoromethyl)pyrazin-2-yl)amino)tetrahydro-2H-pyran-2-yl)methyl)acetamide], the equilibrium dissociation constant (Kd) under setting [3] was less than 10 µM. Regarding `C[C@H]1O[C@H](C2=CC3C(C2=O)[C@@H]2CC[C@H]3C2)[C@H](Oc2cccc(C(F)(F)F)n2)[C@@H](O)[C@H]1O` (stereo partly drawn) [A435A], under setting [2], the Kd is less than 10 µM. On to `C[C@H]1O[C@H](c2cn(C3CCNCC3)nn2)[C@H](Oc2cccc(C(F)(F)F)n2)[C@@H](O)[C@H]1O` [A218, (2R,3R,4S,5R,6R)-2-methyl-6-(1-(piperidin-4-yl)-1H-1,2,3-triazol-4-yl)-5-((6-(trifluoromethyl)pyridin-2-yl)oxy)tetrahydro-2H-pyran-3,4-diol], for which, under setting [1], the Kd was less than 10 µM. On the same count and under the same terms, under `O[C@@H]1[C@H](O)[C@@H](Nc2cncc(C(F)(F)F)n2)CO[C@@H]1CN1Cc2ccccc2C1` [A231, (2R,3R,4R,5S)-2-(isoindolin-2-ylmethyl)-5-((6-(trifluoromethyl)pyrazin-2-yl)amino)tetrahydro-2H-pyran-3,4-diol] stands less than 10 µM; under `O=C(O)c1ccc(CN2CCN(C[C@H]3OC[C@H](Nc4cncc(C(F)(F)F)n4)[C@@H](O)[C@H]3O)CC2)nn1` [A205, 6-((4-(((2R,3R,4R,5S)-3,4-dihydroxy-5-((6-(trifluoromethyl)pyrazin-2-yl)amino)tetrahydro-2H-pyran-2-yl)methyl)piperazin-1-yl)methyl)pyridazine-3-carboxylic acid], less than 10 µM.

Regarding `O[C@@H]1[C@H](O)[C@@H](Nc2cncc(C(F)(F)F)n2)CO[C@@H]1CNc1ncccn1` [A19, (2R,3R,4R,5S)-2-((pyrimidin-2-ylamino)methyl)-5-((6-(trifluoromethyl)pyrazin-2-yl)amino)tetrahydro-2H-pyran-3,4-diol], the Kd under setting [3] was less than 10 µM. The same measure, in the same setting: the result for `O=C(O)COCC(=O)NC[C@H]1OC[C@H](Nc2cncc(C(F)(F)F)n2)[C@@H](O)[C@H]1O` [A30, 2-(2-((((2R,3R,4R,5S)-3,4-dihydroxy-5-((6-(trifluoromethyl)pyrazin-2-yl)amino)tetrahydro-2H-pyran-2-yl)methyl)amino)-2-oxoethoxy)acetic acid] reads less than 10 µM. Take `O=C1CCCN1C[C@H]1OC[C@H](Nc2cncc(C(F)(F)F)n2)[C@@H](O)[C@H]1O` [A157, 1-(((2R,3R,4R,5S)-3,4-dihydroxy-5-((6-(trifluoromethyl)pyrazin-2-yl)amino)tetrahydro-2H-pyran-2-yl)methyl)pyrrolidin-2-one]: under setting [4], the Kd is less than 10 µM.

Consider `OC[C@H]1OC[C@H](Nc2cccc(Br)n2)[C@@H](O)[C@H]1O` [A153, (2R,3R,4R,5S)-5-((6-bromopyridin-2-yl)amino)-2-(hydroxymethyl)tetrahydro-2H-pyran-3,4-diol], for which, under setting [4], the Kd is less than 10 µM. With `O[C@@H]1[C@H](O)[C@@H](Nc2cccc(C(F)(F)F)n2)CO[C@@H]1CN1CCCC1` [A240], under setting [1], the dissociation constant Kd was less than 10 µM.

On to `O[C@@H]1[C@@H](Nc2cccc(C(F)(F)F)n2)[C@H]2OC[C@](COc3cnccn3)(O2)[C@@H]1O` [A296], for which the equilibrium dissociation constant (Kd) under setting [1] is less than 10 µM. For `COCCO[C@H]1O[C@H](CO)[C@H](O)[C@H](O)[C@H]1Nc1cncc(C(F)(F)F)n1` [A5], the Kd under setting [3] is less than 10 µM.
